In patent publication US20060058322A1, “Method of wound healing using A2B adenosine receptor antagonists” (priority 2004, published 2006):
Marks after values point to notes of the source that are not given here.

Experiments:
Yorkshire pig = assay: Wound healing in pig model (full thickness excisions, total granulation tissue); type: in vivo
Procedure: Pig skin heals most like human skin and therefore testing on this animal provides an optimal paradigm to study cutaneous repair mechanisms. In this Example, the effect of an A2B antagonist on wound healing was tested in three pigs. PDGF (REGRANEX® (becaplermin) Gel 0.01%, Ortho-McNeil Pharmaceutical, Inc., Raritan, N.J.) was used as a positive control. The vehicle for drug delivery was 1.5% methylcellulose gel (KY gel). Control wounds received the vehicle alone. 3 different dosages of the A2B antagonist 3-ethyl-1-propyl-8-(1-{[3-(trifluoromethyl)phenyl]methyl}pyrazol-4-yl)-1,3,7-trihydropurine-2,6-dione, 1 μg/40 μl, 4 μg/40 μl, and 20 μg/40 μl were tested.
Method: Three Yorkshire pig ([…].) were used. On the day of surgery, a series of full thickness excisions were created alongside the paravertebral region on one side of the pig. Pigs were sacrificed at the end of 10 days and all wounds were removed for histological and immunohistochemical examinations.

ICR derived male mice = assay: Wound healing in mouse model (full-thickness punch wound, topical treatment); type: in vivo; conditions: mean, n=5; for CT50 (wound half-closure time): linear regression
Procedure: Groups of ICR derived male mice (weighing 24±2 g) of 5 each were used. During testing period, the animals were single-housed in each cage. Under hexobarbital (90 mg/kg, IP) anesthesia, the shoulder and back region of each animal was shaved. A sharp punch (ID 12 mm) was applied to remove the skin including panniculus carnosus and adherent tissues. […] Test substances were administered topically immediately following wound injury once daily for a total of 10 consecutive days. The closure of the wound (%) and wound half-closure time (CT50) were determined by linear regression using Graph-Pad Prism™ (Graph Pad Software USA) and unpaired Student's t test was applied for comparison between treated and vehicle groups at each measurement time point on days 3, 5, 7, 9 and 11. Differences are considered of statistical significance at P<0.05 level.
Table 1 presents test data obtained for the compound 3-ethyl-1-propyl-8-(1-{[3-(trifluoromethyl)phenyl]methyl}pyrazol-4-yl)-1,3,7-trihydropurine-2,6-dione using the mouse model discussed above. Table 2 presents test date obtained using 1,3-dipropyl-8-(1-{[6-(trifluoromethyl)(3-pyridyl)]methyl}pyrazol-4-yl)- 1,3,7-trihydropurine-2,6-dione. In each case, the vehicle used for comparison was 1.5% carboxymethylcellulose in phosphate buffered saline at pH 7.4

Compound: PDGF
- Total granulation tissue, positive control versus placebo formulation (Yorkshire pig; REGRANEX (becaplermin) Gel 0.01%, p=0.034): statistical difference

Compound: CCCn1c(=O)c2[nH]c(-c3cnn(Cc4ccc(C(F)(F)F)nc4)c3)nc2n(CCC)c1=O [1,3-dipropyl-8-(1-{[6-(trifluoromethyl)(3-pyridyl)]methyl}pyrazol-4-yl)-1,3,7-trihydropurine-2,6-dione]
- Percent wound closure (ICR derived male mice; Table 2, 0.5 μg/mouse topical once daily, Day 3): 41.9* %
- Percent wound closure (ICR derived male mice; Table 2, 0.5 μg/mouse topical once daily, Day 5): 53.5* %
- Percent wound closure (ICR derived male mice; Table 2, 0.5 μg/mouse topical once daily, Day 7): 65.8* %
- Percent wound closure (ICR derived male mice; Table 2, 0.5 μg/mouse topical once daily, Day 9): 77.1* %
- Percent wound closure (ICR derived male mice; Table 2, 0.5 μg/mouse topical once daily, Day 11): 85.3* %
- CT50 (wound half-closure time) (ICR derived male mice; Table 2, 0.5 μg/mouse topical once daily): 5.5* DAYS

Compound: CCCn1c(=O)c2[nH]c(-c3cnn(Cc4cccc(C(F)(F)F)c4)c3)nc2n(CC)c1=O [3-ethyl-1-propyl-8-(1-{[3-(trifluoromethyl)phenyl]methyl}pyrazol-4-yl)-1,3,7-trihydropurine-2,6-dione]
- Percent wound closure (ICR derived male mice; 0.5 μg/mouse topical once daily, Day 1): 0%
- Percent wound closure (ICR derived male mice; 0.5 μg/mouse topical once daily, Day 2): 43.2* %
- Percent wound closure (ICR derived male mice; 0.5 μg/mouse topical once daily, Day 3): 51.2* %
- Percent wound closure (ICR derived male mice; 0.5 μg/mouse topical once daily, Day 4): 56.0* %
- Percent wound closure (ICR derived male mice; 0.5 μg/mouse topical once daily, Day 5): 58.8* %
- Percent wound closure (ICR derived male mice; 0.5 μg/mouse topical once daily, Day 6): 64.3* %
- Percent wound closure (ICR derived male mice; 0.5 μg/mouse topical once daily, Day 7): 72.5* %
- Percent wound closure (ICR derived male mice; 0.5 μg/mouse topical once daily, Day 8): 78.2* %
- Percent wound closure (ICR derived male mice; 0.5 μg/mouse topical once daily, Day 9): 82.5* %
- Percent wound closure (ICR derived male mice; 0.5 μg/mouse topical once daily, Day 10): 83.1* %
- Percent wound closure (ICR derived male mice; 0.5 μg/mouse topical once daily, Day 11): 87.1* %
- CT50 (wound half-closure time) (ICR derived male mice; 0.5 μg/mouse topical once daily): 4.3* DAYS
- Percent wound closure (ICR derived male mice; 2 μg/mouse topical once daily, Day 1): 0%
- Percent wound closure (ICR derived male mice; 2 μg/mouse topical once daily, Day 2): 35.6* %
- Percent wound closure (ICR derived male mice; 2 μg/mouse topical once daily, Day 3): 46.5* %
- Percent wound closure (ICR derived male mice; 2 μg/mouse topical once daily, Day 4): 57.4* %
- Percent wound closure (ICR derived male mice; 2 μg/mouse topical once daily, Day 5): 62.4%
- Percent wound closure (ICR derived male mice; 2 μg/mouse topical once daily, Day 6): 68.3* %
- Percent wound closure (ICR derived male mice; 2 μg/mouse topical once daily, Day 7): 73.3* %
- Percent wound closure (ICR derived male mice; 2 μg/mouse topical once daily, Day 8): 78.8* %
- Percent wound closure (ICR derived male mice; 2 μg/mouse topical once daily, Day 9): 82.2* %
- Percent wound closure (ICR derived male mice; 2 μg/mouse topical once daily, Day 10): 89.2* %
- Percent wound closure (ICR derived male mice; 2 μg/mouse topical once daily, Day 11): 91.6* %
- CT50 (wound half-closure time) (ICR derived male mice; 2 μg/mouse topical once daily): 4.4* DAYS
- Total granulation tissue, lowest dose versus highest dose (Yorkshire pig; 1 μg/40 μl versus 20 μg/40 μl topical, p=0.047): statistical difference
- Total granulation tissue, highest dose versus placebo formulation (Yorkshire pig; 20 μg/40 μl topical, p=0.035): statistical difference
- Effect on total granulation tissue (Yorkshire pig; topical 1, 4 and 20 μg/40 μl in 1.5% methylcellulose gel, 10 days, FIG. 1): stimulated the total granulation tissue in a dose-dependent fashion
